According to patent publication US8933230B2, “Phosphorus-containing group-substituted quinoline, its preparation process, medical composition containing the compounds and application” (priority 2011, dated 2015):

Key:
Assay in all cases: KinomeScan kinase panel
Assay type in all cases: binding
[1] = target: T1, PLK4 (Homo sapiens, UniProt O00444)
T1 construct: purchased DiscoveRx Corporation (KinomeScan)
Summary of the method: (§1)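 Each kinase in a 442-kinase KinomeScan set is assayed with compound present at 1000 nM, and percentage-type inhibition at that level is given.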

[2] = target: T2, AXL (Homo sapiens, UniProt P30530)
T2 construct: purchased DiscoveRx Corporation (KinomeScan)
Summary of the method: as §1

[3] = target: T3, MAPKAPK5 (Homo sapiens, UniProt Q8IW41)
T3 construct: purchased DiscoveRx Corporation (KinomeScan)
Summary of the method: as §1

[4] = target: T4, NEK1 (Homo sapiens, UniProt Q96PY6)
T4 construct: purchased DiscoveRx Corporation (KinomeScan)
Summary of the method: as §1

[5] = target: T5, ITK (Homo sapiens, UniProt Q08881)
T5 construct: purchased DiscoveRx Corporation (KinomeScan)
Summary of the method: as §1

[6] = target: T6, S6K1 (Homo sapiens, UniProt P23443)
T6 construct: purchased DiscoveRx Corporation (KinomeScan)
Summary of the method: as §1

[7] = target: T7, PIK3CD (Homo sapiens, UniProt O00329)
T7 construct: purchased DiscoveRx Corporation (KinomeScan)
Summary of the method: as §1

[8] = target: T8, PHKG1 (Homo sapiens, UniProt Q16816)
T8 construct: purchased DiscoveRx Corporation (KinomeScan)
Summary of the method: as §1

[9] = target: T9, MEK6 (Homo sapiens, UniProt P52564)
T9 construct: purchased DiscoveRx Corporation (KinomeScan)
Summary of the method: as §1

[10] = target: T10, TNK1 (Homo sapiens, UniProt Q13470)
T10 construct: purchased DiscoveRx Corporation (KinomeScan)
Summary of the method: as §1

[11] = target: T11, MAK (Homo sapiens, UniProt P20794)
T11 construct: purchased DiscoveRx Corporation (KinomeScan)
Summary of the method: as §1

[12] = target: T12, LRRK2(G2019S) (Homo sapiens, UniProt Q5S007, G2019S)
T12 construct: purchased DiscoveRx Corporation (KinomeScan)
Summary of the method: as §1

[13] = target: T13, ROCK2 (Homo sapiens, UniProt O75116)
T13 construct: purchased DiscoveRx Corporation
Summary of the method: as §1

[14] = target: T14, VRK2 (Homo sapiens, UniProt Q86Y07)
T14 construct: purchased DiscoveRx Corporation (KinomeScan service)
Summary of the method: as §1

[15] = target: T15, SRC (Homo sapiens, UniProt P12931)
T15 construct: purchased DiscoveRx Corporation (KinomeScan)
Summary of the method: as §1

[16] = target: T16, PAKC-alpha (Homo sapiens, UniProt P17612)
T16 construct: purchased DiscoveRx Corporation (KinomeScan)
Summary of the method: as §1

[17] = target: T17, MAP3K15 (Homo sapiens, UniProt Q6ZN16)
T17 construct: purchased DiscoveRx Corporation (KinomeScan)
Summary of the method: as §1

[18] = target: T18, PIP5K1C (Homo sapiens, UniProt O60331)
T18 construct: purchased DiscoveRx Corporation (KinomeScan)
Summary of the method: as §1

[19] = target: T19, PIP5K2C (Homo sapiens, UniProt Q8TBX8)
T19 construct: purchased DiscoveRx Corporation (KinomeScan)
Summary of the method: as §1

[20] = target: T20, GCN2(kin.dom.2.S808G) (Homo sapiens, UniProt Q9P2K8, S808G)
T20 construct: GCN2(kin.dom.2.S808G); purchased DiscoveRx Corporation (KinomeScan)
Summary of the method: as §1

[21] = target: T21, ABL1-phosphorylated (Homo sapiens, UniProt P00519)
T21 construct: purchased DiscoveRx Corporation (KinomeScan)
Summary of the method: as §1

[22] = target: T22, MST2 (Homo sapiens, UniProt Q13188)
T22 construct: purchased DiscoveRx Corporation (KinomeScan)
Summary of the method: as §1

[23] = target: T23, ADCK3 (Homo sapiens, UniProt Q8NI60)
T23 construct: purchased DiscoveRx Corporation (KinomeScan)
Summary of the method: as §1

[24] = target: T24, LZK (Homo sapiens, UniProt O43283)
T24 construct: purchased DiscoveRx Corporation (KinomeScan)
Summary of the method: as §1

[25] = target: T25, KIT(V559D) (Homo sapiens, UniProt P10721, V559D)
T25 construct: purchased DiscoveRx Corporation (KinomeScan)
Summary of the method: as §1

[26] = target: T26, TNK2 (Homo sapiens, UniProt Q07912)
T26 construct: purchased DiscoveRx Corporation (KinomeScan)
Summary of the method: as §1

[27] = target: T27, EGFR(L858R) (Homo sapiens, UniProt P00533, L858R)
T27 construct: purchased DiscoveRx Corporation (KinomeScan)
Summary of the method: as §1

[28] = target: T28, ULK3 (Homo sapiens, UniProt Q6PHR2)
T28 construct: purchased DiscoveRx Corporation (KinomeScan service)
Summary of the method: as §1

[29] = target: T29, ABL1(M351T)-phosphorylated (Homo sapiens, UniProt P00519, M351T)
T29 construct: purchased DiscoveRx Corporation (KinomeScan)
Summary of the method: as §1

[30] = target: T30, QSK (Homo sapiens, UniProt Q9Y2K2)
T30 construct: purchased DiscoveRx Corporation
Summary of the method: as §1

[31] = target: T31, PAK3 (Homo sapiens, UniProt O75914)
T31 construct: purchased DiscoveRx Corporation (KinomeScan panel)
Summary of the method: as §1

[32] = target: T32, CSNK2A2 (Homo sapiens, UniProt P19784)
T32 construct: purchased DiscoveRx Corporation (KinomeScan)
Summary of the method: as §1

[33] = target: T33, TRAK (Homo sapiens, UniProt P04629)
T33 construct: purchased DiscoveRx Corporation (KinomeScan)
Summary of the method: as §1

[34] = target: T34, ACVR2B (Homo sapiens, UniProt Q13705)
T34 construct: purchased DiscoveRx Corporation (KinomeScan)
Summary of the method: as §1

[35] = target: T35, ERBB3 (Homo sapiens, UniProt P21860)
T35 construct: purchased DiscoveRx Corporation (KinomeScan)
Summary of the method: as §1

T4 sequence (Q96PY6 whole entry): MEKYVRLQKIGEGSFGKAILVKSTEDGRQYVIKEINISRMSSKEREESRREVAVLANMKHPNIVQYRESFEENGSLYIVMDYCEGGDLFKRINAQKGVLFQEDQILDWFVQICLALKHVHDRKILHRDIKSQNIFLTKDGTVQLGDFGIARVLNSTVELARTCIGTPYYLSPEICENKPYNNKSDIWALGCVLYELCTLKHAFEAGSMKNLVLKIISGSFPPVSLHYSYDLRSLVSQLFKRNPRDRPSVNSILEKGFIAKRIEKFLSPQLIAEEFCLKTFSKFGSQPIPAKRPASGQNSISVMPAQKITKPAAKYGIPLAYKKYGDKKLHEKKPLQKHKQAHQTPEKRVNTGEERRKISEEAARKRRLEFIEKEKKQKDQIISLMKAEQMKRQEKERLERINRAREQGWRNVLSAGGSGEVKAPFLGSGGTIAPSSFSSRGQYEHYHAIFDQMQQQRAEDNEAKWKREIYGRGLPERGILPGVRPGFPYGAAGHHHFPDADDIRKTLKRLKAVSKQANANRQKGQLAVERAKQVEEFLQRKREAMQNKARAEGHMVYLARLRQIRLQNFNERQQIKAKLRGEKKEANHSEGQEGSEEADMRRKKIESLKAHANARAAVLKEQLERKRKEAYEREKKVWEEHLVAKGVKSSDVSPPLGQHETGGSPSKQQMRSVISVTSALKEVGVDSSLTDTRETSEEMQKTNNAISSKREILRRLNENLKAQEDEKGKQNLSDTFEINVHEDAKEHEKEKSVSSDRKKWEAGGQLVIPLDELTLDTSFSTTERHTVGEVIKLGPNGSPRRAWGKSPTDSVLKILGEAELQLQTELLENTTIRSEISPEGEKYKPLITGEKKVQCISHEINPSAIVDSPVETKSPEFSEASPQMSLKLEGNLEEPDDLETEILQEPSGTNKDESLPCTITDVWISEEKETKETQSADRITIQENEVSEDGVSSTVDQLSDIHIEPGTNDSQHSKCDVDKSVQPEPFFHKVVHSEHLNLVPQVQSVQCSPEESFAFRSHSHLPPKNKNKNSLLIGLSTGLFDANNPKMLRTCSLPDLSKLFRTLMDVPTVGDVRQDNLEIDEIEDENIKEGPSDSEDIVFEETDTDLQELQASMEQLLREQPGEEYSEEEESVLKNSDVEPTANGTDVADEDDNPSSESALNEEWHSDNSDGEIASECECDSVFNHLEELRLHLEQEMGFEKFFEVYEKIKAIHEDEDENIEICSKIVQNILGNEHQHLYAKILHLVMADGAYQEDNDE
T17 sequence (Q6ZN16 whole entry): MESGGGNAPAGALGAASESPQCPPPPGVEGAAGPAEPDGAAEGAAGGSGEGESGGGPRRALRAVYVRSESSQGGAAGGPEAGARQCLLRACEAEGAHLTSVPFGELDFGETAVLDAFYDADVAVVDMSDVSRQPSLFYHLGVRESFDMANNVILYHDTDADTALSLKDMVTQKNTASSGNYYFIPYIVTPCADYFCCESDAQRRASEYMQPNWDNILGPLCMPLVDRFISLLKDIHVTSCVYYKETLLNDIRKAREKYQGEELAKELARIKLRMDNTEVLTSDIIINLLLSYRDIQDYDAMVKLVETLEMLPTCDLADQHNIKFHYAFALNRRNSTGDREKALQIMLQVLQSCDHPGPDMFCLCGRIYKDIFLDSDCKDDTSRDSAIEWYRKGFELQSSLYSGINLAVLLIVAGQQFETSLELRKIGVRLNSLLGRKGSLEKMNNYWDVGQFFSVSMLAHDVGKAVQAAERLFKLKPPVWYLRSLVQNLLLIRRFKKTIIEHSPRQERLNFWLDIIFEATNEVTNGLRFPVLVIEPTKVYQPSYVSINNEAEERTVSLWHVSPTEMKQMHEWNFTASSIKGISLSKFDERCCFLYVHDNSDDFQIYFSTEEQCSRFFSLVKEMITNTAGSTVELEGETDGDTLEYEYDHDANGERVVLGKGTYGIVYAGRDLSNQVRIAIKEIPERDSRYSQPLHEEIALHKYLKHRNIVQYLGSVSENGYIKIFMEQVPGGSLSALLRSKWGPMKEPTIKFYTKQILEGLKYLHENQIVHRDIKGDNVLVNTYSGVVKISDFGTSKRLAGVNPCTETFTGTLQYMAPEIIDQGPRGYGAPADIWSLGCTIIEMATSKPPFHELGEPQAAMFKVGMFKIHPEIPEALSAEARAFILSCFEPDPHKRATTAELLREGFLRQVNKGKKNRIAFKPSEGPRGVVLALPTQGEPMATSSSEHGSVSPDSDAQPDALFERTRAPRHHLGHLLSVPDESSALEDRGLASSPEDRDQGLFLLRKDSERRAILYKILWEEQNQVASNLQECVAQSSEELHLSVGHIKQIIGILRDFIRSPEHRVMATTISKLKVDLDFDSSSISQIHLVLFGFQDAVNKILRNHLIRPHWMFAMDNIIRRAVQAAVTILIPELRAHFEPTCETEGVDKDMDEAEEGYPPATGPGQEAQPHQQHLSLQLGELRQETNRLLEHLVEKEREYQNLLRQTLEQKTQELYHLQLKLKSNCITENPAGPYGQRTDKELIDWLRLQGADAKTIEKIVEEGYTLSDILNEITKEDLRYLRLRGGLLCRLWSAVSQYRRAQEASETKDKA
T11 sequence (P20794 whole entry): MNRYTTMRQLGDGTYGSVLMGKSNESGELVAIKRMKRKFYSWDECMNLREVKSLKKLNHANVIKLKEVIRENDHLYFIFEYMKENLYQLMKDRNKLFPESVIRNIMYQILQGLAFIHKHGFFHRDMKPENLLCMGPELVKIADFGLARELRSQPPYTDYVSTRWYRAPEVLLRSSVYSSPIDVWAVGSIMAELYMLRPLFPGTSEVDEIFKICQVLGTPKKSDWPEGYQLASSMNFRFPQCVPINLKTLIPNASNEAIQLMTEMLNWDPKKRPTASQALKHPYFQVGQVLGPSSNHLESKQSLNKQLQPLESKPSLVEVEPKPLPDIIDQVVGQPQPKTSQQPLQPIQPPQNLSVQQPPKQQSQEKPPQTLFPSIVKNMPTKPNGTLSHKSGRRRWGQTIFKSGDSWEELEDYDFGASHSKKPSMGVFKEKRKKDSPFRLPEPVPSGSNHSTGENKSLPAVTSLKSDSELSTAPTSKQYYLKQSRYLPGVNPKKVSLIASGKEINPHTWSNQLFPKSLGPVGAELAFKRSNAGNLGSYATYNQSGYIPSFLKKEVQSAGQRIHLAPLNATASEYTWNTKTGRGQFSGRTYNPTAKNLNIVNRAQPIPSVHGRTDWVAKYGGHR
T5 sequence (Q08881 whole entry): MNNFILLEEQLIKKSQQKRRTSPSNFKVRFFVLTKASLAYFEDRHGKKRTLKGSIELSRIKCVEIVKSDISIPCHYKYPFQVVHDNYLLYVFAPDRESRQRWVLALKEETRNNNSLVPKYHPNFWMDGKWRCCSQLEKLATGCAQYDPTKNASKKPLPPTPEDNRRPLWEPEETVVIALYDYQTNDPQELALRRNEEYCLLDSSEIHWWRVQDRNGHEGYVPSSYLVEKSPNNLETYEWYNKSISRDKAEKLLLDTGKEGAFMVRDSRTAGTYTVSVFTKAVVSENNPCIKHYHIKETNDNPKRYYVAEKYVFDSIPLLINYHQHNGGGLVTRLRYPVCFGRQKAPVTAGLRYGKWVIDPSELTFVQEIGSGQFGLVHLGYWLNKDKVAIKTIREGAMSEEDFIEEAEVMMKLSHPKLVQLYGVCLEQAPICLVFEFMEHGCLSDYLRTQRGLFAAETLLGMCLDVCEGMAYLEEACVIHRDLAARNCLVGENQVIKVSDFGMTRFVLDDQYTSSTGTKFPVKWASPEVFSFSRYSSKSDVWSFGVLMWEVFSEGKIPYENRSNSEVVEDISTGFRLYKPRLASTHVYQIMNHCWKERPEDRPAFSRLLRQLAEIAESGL
T33 sequence (P04629 33-796): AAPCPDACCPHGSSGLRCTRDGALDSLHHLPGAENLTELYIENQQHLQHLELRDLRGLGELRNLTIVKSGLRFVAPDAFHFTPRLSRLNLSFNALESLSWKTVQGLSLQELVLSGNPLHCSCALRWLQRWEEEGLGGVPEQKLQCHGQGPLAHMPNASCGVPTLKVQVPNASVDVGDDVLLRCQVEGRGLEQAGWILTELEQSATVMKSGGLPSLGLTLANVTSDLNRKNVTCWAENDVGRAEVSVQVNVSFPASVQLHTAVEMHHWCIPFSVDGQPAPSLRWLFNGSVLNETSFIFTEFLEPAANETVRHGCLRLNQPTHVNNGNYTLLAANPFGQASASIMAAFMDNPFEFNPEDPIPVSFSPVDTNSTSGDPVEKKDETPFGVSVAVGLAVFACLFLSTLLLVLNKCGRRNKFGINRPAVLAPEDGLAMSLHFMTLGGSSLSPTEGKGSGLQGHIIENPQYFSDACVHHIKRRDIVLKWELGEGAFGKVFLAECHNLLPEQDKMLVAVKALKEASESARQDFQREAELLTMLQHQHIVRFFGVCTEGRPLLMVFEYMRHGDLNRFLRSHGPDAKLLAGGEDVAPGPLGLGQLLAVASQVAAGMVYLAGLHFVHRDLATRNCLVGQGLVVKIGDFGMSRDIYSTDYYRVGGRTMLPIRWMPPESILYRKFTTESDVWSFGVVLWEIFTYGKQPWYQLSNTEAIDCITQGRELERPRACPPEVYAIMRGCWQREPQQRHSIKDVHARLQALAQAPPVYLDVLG
T3 sequence (Q8IW41 whole entry): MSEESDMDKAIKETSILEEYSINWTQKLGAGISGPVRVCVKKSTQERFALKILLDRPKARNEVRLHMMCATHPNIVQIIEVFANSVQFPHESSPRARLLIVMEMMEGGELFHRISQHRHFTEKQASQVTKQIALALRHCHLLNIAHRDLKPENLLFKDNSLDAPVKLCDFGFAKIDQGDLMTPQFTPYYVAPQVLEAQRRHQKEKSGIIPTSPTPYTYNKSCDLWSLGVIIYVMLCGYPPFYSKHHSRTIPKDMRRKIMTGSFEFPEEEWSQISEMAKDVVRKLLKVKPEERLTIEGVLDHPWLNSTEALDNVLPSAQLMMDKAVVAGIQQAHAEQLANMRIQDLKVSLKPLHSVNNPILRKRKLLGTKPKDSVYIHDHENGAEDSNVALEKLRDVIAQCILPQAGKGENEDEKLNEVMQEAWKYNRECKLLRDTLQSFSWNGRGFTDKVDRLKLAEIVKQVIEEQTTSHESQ

CCOP(=O)(CN1CCC(COc2cc3nccc(Oc4ccc(NC(=O)C5(C(=O)Nc6ccc(F)cc6)CC5)cc4F)c3cc2OC)CC1)OCC [Example 10, N1-[4-[[7-[[1-(diethoxyphosphorylmethyl)-4-piperidinyl]methoxyl]-6-methoxyl-4-quinolyl]oxyl]-3-fluorophenyl]-N1′-(4-fluorophenyl)cyclopropane-1,1-dicarboxamide]
% Ctrl@1000 nM [1]: 7.4 % Ctrl
% Ctrl@1000 nM [2]: 8 % Ctrl
% Ctrl@1000 nM [3]: 100 % Ctrl
% Ctrl@1000 nM [4]: 100 % Ctrl
% Ctrl@1000 nM [5]: 34 % Ctrl
% Ctrl@1000 nM [6]: 89 % Ctrl
% Ctrl@1000 nM [7]: 100 % Ctrl
% Ctrl@1000 nM [8]: 100 % Ctrl
% Ctrl@1000 nM [9]: 87 % Ctrl
% Ctrl@1000 nM [10]: 30 % Ctrl
% Ctrl@1000 nM [11]: 100 % Ctrl
% Ctrl@1000 nM [12]: 100 % Ctrl
% Ctrl@1000 nM [13]: 100 % Ctrl
% Ctrl@1000 nM [14]: 100 % Ctrl
% Ctrl@1000 nM [15]: 3.2 % Ctrl
% Ctrl@1000 nM [16]: 100 % Ctrl
% Ctrl@1000 nM [17]: 100 % Ctrl
% Ctrl@1000 nM [18]: 100 % Ctrl
% Ctrl@1000 nM [19]: 38 % Ctrl
% Ctrl@1000 nM [20]: 100 % Ctrl
% Ctrl@1000 nM [21]: 33 % Ctrl
% Ctrl@1000 nM [22]: 100 % Ctrl
% Ctrl@1000 nM [23]: 67 % Ctrl
% Ctrl@1000 nM [24]: 47 % Ctrl
% Ctrl@1000 nM [25]: 0.15 % Ctrl
% Ctrl@1000 nM [26]: 94 % Ctrl
% Ctrl@1000 nM [27]: 59 % Ctrl
% Ctrl@1000 nM [28]: 82 % Ctrl
% Ctrl@1000 nM [29]: 42 % Ctrl
% Ctrl@1000 nM [30]: 100 % Ctrl
% Ctrl@1000 nM [31]: 32 % Ctrl
% Ctrl@1000 nM [32]: 100 % Ctrl
% Ctrl@1000 nM [33]: 1.8 % Ctrl
% Ctrl@1000 nM [34]: 100 % Ctrl
% Ctrl@1000 nM [35]: 98 % Ctrl
